In US3935309A, “Synergistic combinations of phosphonomycin and bacteriostatic agents” (Merck & Co., Inc., priority 1974, dated 1976):
Like-named read-outs stand apart in the source and are kept apart here.

How the values were obtained:
[1] = tested on: Staphylococcus aureus; assay: criss-cross MIC method in nutrient broth (Example 2); format: cell-based; conditions: 37°C, 24 hours, two experiments on different days
Procedure: This method involved the simultaneous determination of the MIC (minimum inhibitory concentration) of each member of a pair of antibiotics and of combinations of the two in nutrient broth (NB) containing 0.2% yeast extract (YE). Serial two-fold dilutions were made throughout the experiment, and the starting inoculum consisted of approximately 25,000 cells/ml. of Staphylococcus aureus. Incubation was at 37°C. for 24 hours. Identical experiments were performed on two different days.

[2] = tested on: Escherichia coli 2017; assay: Combined antibiotic therapy of Escherichia coli infection in mice (Example 5); format: in vivo, mice infected with Escherichia coli 2017; design: ED50: unit not given beside the values; conditions: for ED50 / % of effective dose: first test
Source text: (§1) For example, using Escherichia coli 2017 as the infecting agent, sodium phosphonomycin was titrated alone and in the presence 5 and also in the presence of 0.5γtetracycline, while tetracycline was titrated alone and in the presence of 50γ, and also in the presence of 5γof sodium phosphonomycin. The two drugs were given by the subcutaneous route at separate sites on the ventral surface of the mouse. Such therapy was given only at the time of infection for the Escherichia coli and Pseudomonas aeruginosa tests but both at the time of infection and 6 hours later for all other tests. Infection was given intraperitoneally using broth suspensions of the test organism.

[3] = tested on: Proteus vulgaris; assay: MIC by two-fold serial broth dilution, alone and in combination (Example 1); format: cell-based; conditions: for MIC: Proteus vulgaris, read-out: MIC of 2nd Subst.
Procedure: (§2) The MIC (minimum inhibitory concentration) of phosphonomycin and each of the other antibiotics by itself was determined before the combination synergy experiment was begun, as follows: 2 ml. of a double strength solution in sterile distilled water of the highest strength to be tested (usually 1000γ) was added to a tube of double strength nutrient broth (NB) and mixed thoroughly. Two-fold serial dilutions were then made by transferring 2 ml. to the next tube (1 × NB) and so on for approximately 12 tubes. The tubes were inoculated with one drop each of a 1:50 dilution of a culture adjusted to a Lumetron 60 reading in NB + 0.2% yeast extract so as to provide a concentration of cells of approximately 25,000/ml. The tubes were then incubated at 37°C. and examined for growth at 24, 48 and 72 hours.
(§3) In the combination experiment, the MIC value obtained as described above was used as approximately the midpoint of the range to be tested for each of the two antibiotics of the combination. In a manner similar to the above, two-fold dilutions of the first substance in the combination were made except that 1.8 ml. volumes were used and a 2.2 × strength solution of both the antibiotic and the NB were made. The second antibiotic of the combination was added to duplicate rows of serial dilutions of the first substance as follows: 0.2 ml. in NB of a [formula] and a [formula] respectively, of the second substance was added to each tube in a row of serial dilutions of the first antibiotic. The final concentration that resulted enabled the determination of the effect of both MIC/4 and MIC/8 of each substance in the presence of from approximately 32 MIC to [formula] of the other. Inocula were added as in the initial single MIC experiment.

[4] = tested on: Streptococcus faecalis; assay: as above; format: cell-based; conditions: for MIC: Enterococcus faecalis, read-out: MIC of 2nd Subst.
Procedure: as §2, §3

[5] = tested on: pathogenic bacteria; assay: in vitro combination tests with various pathogens (general description); format: cell-based; conditions: for potentiation when combined with phosphonomycin: various strains of pathogenic bacteria
Source text: Other experimental results have shown that novobiocin, chlortetracycline and sulfisoxazole are potentiated when combined with phosphonomycin and tested with various strains of pathogenic bacteria.

[6] = tested on: Pseudomonas aeruginosa; assay: MIC by two-fold serial broth dilution, alone and in combination (Example 1); format: cell-based; conditions: for MIC: Pseudomonas aeruginosa, read-out: MIC of 2nd Subst.
Procedure: as §2, §3

[7] = tested on: Staphylococcus aureus; assay: as above; format: cell-based; conditions: for MIC: Staphylococcus aureus, read-out: MIC of 2nd Subst.
Procedure: as §2, §3

[8] = tested on: Klebsiella pneumoniae; assay: as above; format: cell-based
Procedure: as §2, §3

[9] = tested on: Pseudomonas stutzeri; assay: as above; format: cell-based
Procedure: as §2, §3

[10] = tested on: Pseudomonas aeruginosa 3210; assay: Combined antibiotic therapy of experimental infection in mice (Example 5); format: in vivo, mice infected with Pseudomonas aeruginosa 3210; conditions: for s.c. ED50: 10 LD50
Source text: as §1

[11] = tested on: Klebsiella pneumoniae "B"; assay: as above; format: in vivo, mice infected with Klebsiella pneumoniae "B"; conditions: for s.c. ED50: 7 LD50
Source text: as §1

[12] = tested on: Streptococcus pyogenes 3009; assay: as above; format: in vivo, mice infected with Streptococcus pyogenes 3009; conditions: 6 LD50
Source text: as §1

[13] = chloramphenicol repeat test, 7 LD50, chloramphenicol titrated, phosphonomycin constant 5
[14] = chloramphenicol repeat test, 7 LD50, chloramphenicol titrated, phosphonomycin constant 50
[15] = chloramphenicol test 1, 9 LD50, chloramphenicol titrated, phosphonomycin constant 10
[16] = chloramphenicol test 1, 9 LD50, chloramphenicol titrated, phosphonomycin constant 100
[17] = in presence of MIC/2 instead of ≤ MIC/4
[18] = novobiocin itself, at the levels tested
[19] = alone, therapy at 0 and 6 hours, phosphonomycin as sodium salt
[20] = combination of 54% tetracycline with .5% sodium phosphonomycin
[21] = phosphonomycin titrated in the presence of 0.5γ tetracycline
[22] = tetracycline titrated in the presence of 50γ sodium phosphonomycin
[23] = tetracycline repeat test, 7 LD50, tetracycline titrated, phosphonomycin constant 0.5
[24] = tetracycline repeat test, 7 LD50, tetracycline titrated, phosphonomycin constant 50
[25] = tetracycline test 1, 9 LD50, alone
[26] = tetracycline test 1, 9 LD50, tetracycline titrated, phosphonomycin constant 5
[27] = tetracycline test 1, 9 LD50, tetracycline titrated, phosphonomycin constant 50
[28] = tetracycline titrated, phosphonomycin constant 500
[29] = tetracycline titrated, phosphonomycin constant 1000

O=C(N[C@H](CO)[C@H](O)c1ccc([N+](=O)[O-])cc1)C(Cl)Cl [Chloramphenicol]
MIC ([1]; Staphylococcus aureus, 24 h, read-out: CLM MIC, alone): 7.8 µg/mL
CLM MIC ([1]; alone, listed as CLM): 3.9 µg/mL
% ED50 ([2]; chloramphenicol repeat test, 7 LD50, alone): 100%
s.c. ED50 ([2]; chloramphenicol repeat test, 7 LD50, alone, single dose at 0 hour, phosphonomycin as sodium salt): 120 µg
% ED50 [2, 13]: 39%
s.c. ED50 [2, 13]: 47 µg
% ED50 [2, 14]: 17%
s.c. ED50 [2, 14]: 20 µg
% ED50 ([2]; chloramphenicol repeat test, 7 LD50, phosphonomycin titrated, chloramphenicol constant 5): 4%
% ED50 ([2]; chloramphenicol repeat test, 7 LD50, phosphonomycin titrated, chloramphenicol constant 50): 42%
% ED50 ([2]; chloramphenicol test 1, 9 LD50, alone): 100%
% ED50 [2, 15]: 55%
s.c. ED50 [2, 15]: 250 µg
% ED50 [2, 16]: 24%
s.c. ED50 [2, 16]: 107 µg
% ED50 ([2]; chloramphenicol test 1, 9 LD50, phosphonomycin titrated, chloramphenicol constant 3): 1%
% ED50 ([2]; chloramphenicol test 1, 9 LD50, phosphonomycin titrated, chloramphenicol constant 30): 7%

CN(C)[C@@H]1C(O)=C(C(N)=O)C(=O)[C@@]2(O)C(O)=C3C(=O)c4c(O)ccc(Cl)c4[C@@](C)(O)[C@H]3C[C@@H]12 [Chlortetracycline]
MIC of 2nd Subst. in presence of ≤ MIC/4 of phosphonomycin [3]: 0.25
MIC [3]: 2 µg/mL
MIC of 2nd Subst. in presence of ≤ MIC/4 of phosphonomycin [4]: 0.5
MIC [4]: 0.5 µg/mL
potentiation when combined with phosphonomycin [5]: potentiated

CC[C@H]1OC(=O)[C@H](C)[C@@H](O[C@H]2C[C@@](C)(OC)[C@@H](O)[C@H](C)O2)[C@H](C)[C@@H](O[C@@H]2O[C@H](C)C[C@H](N(C)C)[C@H]2O)[C@](C)(O)C[C@@H](C)C(=O)[C@H](C)[C@@H](O)[C@]1(C)O [Erythromycin]
MIC [3]: 1000 µg/mL
MIC of 2nd Subst. in presence of phosphonomycin [3, 17]: 500 µg/mL
MIC [6]: > 16000 µg/mL
MIC of 2nd Subst. in presence of ≤ MIC/4 of phosphonomycin ([6]; resistant growth present): 2000
MIC of 2nd Subst. in presence of ≤ MIC/4 of phosphonomycin [7]: 2
MIC [7]: 8 µg/mL
MIC of 2nd Subst. in presence of ≤ MIC/4 of phosphonomycin [4]: 16
MIC [4]: 32 µg/mL

CO[C@@H]1[C@@H](OC(N)=O)[C@@H](O)[C@H](Oc2ccc3c(O)c(NC(=O)c4ccc(O)c(CC=C(C)C)c4)c(=O)oc3c2C)OC1(C)C [Novobiocin]
MIC of 2nd Subst. in presence of ≤ MIC/4 of phosphonomycin [8]: < 2
MIC ([8]; Klebsiella pneumoniae, alone, read-out: MIC of 2nd Subst.): 32 µg/mL
MIC of 2nd Subst. in presence of ≤ MIC/4 of phosphonomycin [3]: 3.9
MIC [3]: 32 µg/mL
MIC of 2nd Subst. in presence of ≤ MIC/4 of phosphonomycin [6]: 62.5
MIC [6]: 250 µg/mL
MIC of 2nd Subst. in presence of ≤ MIC/4 of phosphonomycin [9]: 8
MIC ([9]; Stutzerimonas stutzeri, alone, read-out: MIC of 2nd Subst.): 32 µg/mL
MIC [7]: 0.06 µg/mL
MIC of 2nd Subst. in presence of phosphonomycin [7, 17]: 0.015 µg/mL
MIC of 2nd Subst. in presence of ≤ MIC/4 of phosphonomycin [4]: 4
MIC [4]: 4 µg/mL
s.c. ED50 ([10]; alone, therapy at 0 hour only, phosphonomycin as sodium salt): > 10000 µg
s.c. ED50 ([10]; novobiocin titrated, phosphonomycin > 20): > 10000 µg
s.c. ED50 ([10]; novobiocin with phosphonomycin >200): > 10000 µg
protection of mice [10, 18]: did not protect
s.c. ED50 [11, 19]: > 2500 µg
s.c. ED50 ([11]; novobiocin titrated, phosphonomycin > 100): > 2500 µg
s.c. ED50 ([11]; novobiocin with phosphonomycin > 10): > 2500 µg
protection of mice [11, 18]: did not protect
control of pathogens by combination with phosphonomycin [5]: effective in controlling pathogens which cannot be effectively controlled by either antibiotic separately
potentiation when combined with phosphonomycin [5]: potentiated

CN(C)C1C(=O)C(C(N)=O)=C(O)C2(O)C(=O)C3=C(O)c4c(O)cccc4C(C)(O)C3CC12 (stereo not drawn) [Tetracycline]
ED50 ([2]; alone): 50 γ
% of effective dose [2, 20]: 54%
% of effective dose [2, 21]: 1%
% of effective dose [2, 22]: 25%
ED50 ([2]; titrated in the presence of 50γ sodium phosphonomycin): 13 γ
% ED50 ([2]; tetracycline repeat test, 7 LD50, alone): 100%
s.c. ED50 ([2]; tetracycline repeat test, 7 LD50, alone, single dose at 0 hour, phosphonomycin as sodium salt): 31 µg
% ED50 ([2]; tetracycline repeat test, 7 LD50, phosphonomycin titrated, tetracycline constant 1): 3%
% ED50 ([2]; tetracycline repeat test, 7 LD50, phosphonomycin titrated, tetracycline constant 10): 32%
% ED50 [2, 23]: 23%
s.c. ED50 [2, 23]: 7 µg
% ED50 [2, 24]: 100%
s.c. ED50 [2, 24]: 31 µg
% ED50 [2, 25]: 100%
% ED50, Combined % [2, 25]: 100%
s.c. ED50 ([2]; tetracycline test 1, 9 LD50, alone, single dose at 0 hour, phosphonomycin as sodium salt): 50 µg
% ED50 ([2]; tetracycline test 1, 9 LD50, phosphonomycin titrated, tetracycline constant 0.5): 1%
% ED50 ([2]; tetracycline test 1, 9 LD50, phosphonomycin titrated, tetracycline constant 5): 10%
% ED50 [2, 26]: 54%
s.c. ED50 [2, 26]: 27 µg
% ED50 [2, 27]: 25%
s.c. ED50 [2, 27]: 13 µg
enhancement of tetracycline activity ([2]; two tests, constant quantity of sodium phosphonomycin): enhanced
% ED50 ([12]; alone): 100%
s.c. ED50 [12, 19]: 55 µg
% ED50 [12, 28]: 36%
s.c. ED50 [12, 28]: 35 µg
% ED50 [12, 29]: 33%
s.c. ED50 [12, 29]: 18 µg

C[C@@H]1O[C@@H]1P(=O)(O)O [sodium phosphonomycin]
ED50 ([2]; alone): 1000 γ
% of effective dose [2, 20]: .5%
% of effective dose [2, 21]: 100%
% of effective dose [2, 22]: 5%
ED50 ([2]; titrated in the presence of 0.5γ tetracycline): 1000 γ
enhancement of sodium phosphonomycin activity ([2]; two tests, constant quantity of tetracycline): In neither test did a constant quantity of tetracycline enhance sodium phosphonomycin activity
interaction of combination ([11]; 1 mg. of novobiocin included in the dose): could be considered as potentiation
sodium phosphonomycin required to protect the mice ([11]; 1 mg. of novobiocin included in the dose vs its absence): less sodium phosphonomycin was required to protect the mice

Cc1noc(NS(=O)(=O)c2ccc(N)cc2)c1C [sulfisoxazole]
potentiation when combined with phosphonomycin [5]: potentiated
